Experimental data: ChEMBL document CHEMBL3045679, “Microwave-assisted synthesis and pharmacological studies of novel 5-deazaalloxazine derivatives” (2012)
Converted amounts (≈) assume the structure as drawn. The source made the active and inactive calls. The calls are words filed in the database; no cut-off is given here.

Columns and labels:
Aspergillus flavus [1] = test: Antifungal activity against Aspergillus flavus NCIM 535 at 500 ug/disk after 72 hr by disk diffusion method; type: functional
Candida albicans [2] = test: Antifungal activity against Candida albicans NCIM 3471 at 500 ug/disk after 72 hr by disk diffusion method; type: functional
Candida albicans [3] = test: Antifungal activity against Candida albicans NCIM 3471 at 1000 ug/disk after 72 hr by disk diffusion method; type: functional; settings: NCIM 3471, 72 h, read-out: DIZ
Candida albicans [4] = test: Antifungal activity against Candida albicans NCIM 3471 after 72 hr by broth dilution assay; type: functional; settings: NCIM 3471, 72 h
Klebsiella aerogenes [5] = test: Antibacterial activity against Enterobacter aerogenes NCIM 2239 at 500 ug/disk after 24 hr by disk diffusion method; type: functional
Bacillus subtilis [6] = test: Antibacterial activity against Bacillus subtilis NCIM 2063 at 500 ug/disk after 24 hr by disk diffusion method; type: functional; settings: NCIM 2063, 24 h, read-out: DIZ
Klebsiella aerogenes [7] = test: Antibacterial activity against Enterobacter aerogenes NCIM 2239 at 1000 ug/disk after 24 hr by disk diffusion method; type: functional; settings: NCIM 2239, 24 h, read-out: DIZ
Bacillus cereus [8] = test: Antibacterial activity against Bacillus cereus NCIM 2155 at 500 ug/disk after 24 hr by disk diffusion method; type: functional; settings: NCIM 2155, 24 h, read-out: DIZ
Rhodotorula mucilaginosa [9] = test: Antifungal activity against Rhodotorula mucilaginosa NCIM 3174 at 1000 ug/disk after 72 hr by disk diffusion method; type: functional; settings: NCIM 3174, 72 h, read-out: DIZ
Streptomyces albus [10] = test: Antibacterial activity against Streptomyces albus NCIM 2178 at 500 ug/disk after 24 hr by disk diffusion method; type: functional, organism-based
Lipomyces lipofer [11] = test: Antifungal activity against Lipomyces lipofer NCIM 3252 at 500 ug/disk after 72 hr by disk diffusion method; type: functional
Aspergillus flavus [12] = test: Antifungal activity against Aspergillus flavus NCIM 535 at 1000 ug/disk after 72 hr by disk diffusion method; type: functional
Escherichia coli [13] = test: Antibacterial activity against Escherichia coli NCIM 2065 after 24 hr by broth dilution assay; type: functional; settings: NCIM 2065, 24 h
Escherichia coli [14] = test: Antibacterial activity against Escherichia coli NCIM 2065 at 500 ug/disk after 24 hr by disk diffusion method; type: functional
Streptomyces albus [15] = test: Antibacterial activity against Streptomyces albus NCIM 2178 after 24 hr by broth dilution assay; type: functional; settings: NCIM 2178, 24 h
Lipomyces lipofer [16] = test: Antifungal activity against Lipomyces lipofer NCIM 3252 at 1000 ug/disk after 72 hr by disk diffusion method; type: functional
Penicillium chrysogenum [17] = test: Antifungal activity against Penicillium chrysogenum NCIM 707 at 500 ug/disk after 72 hr by disk diffusion method; type: functional
Bacillus cereus [18] = test: Antibacterial activity against Bacillus cereus NCIM 2155 after 24 hr by broth dilution assay; type: functional; settings: NCIM 2155, 24 h
Escherichia coli [19] = test: Antibacterial activity against Escherichia coli NCIM 2065 at 1000 ug/disk after 24 hr by disk diffusion method; type: functional; settings: NCIM 2065, 24 h, read-out: DIZ
Bacillus subtilis [20] = test: Antibacterial activity against Bacillus subtilis NCIM 2063 at 1000 ug/disk after 24 hr by disk diffusion method; type: functional; settings: NCIM 2063, 24 h, read-out: DIZ
Rhodotorula mucilaginosa [21] = test: Antifungal activity against Rhodotorula mucilaginosa NCIM 3174 after 72 hr by broth dilution assay; type: functional; settings: NCIM 3174, 72 h
Bacillus subtilis [22] = test: Antibacterial activity against Bacillus subtilis NCIM 2063 after 24 hr by broth dilution assay; type: functional; settings: NCIM 2063, 24 h
Streptomyces albus [23] = test: Antibacterial activity against Streptomyces albus NCIM 2178 at 1000 ug/disk after 24 hr by disk diffusion method; type: functional; settings: NCIM 2178, 24 h, read-out: DIZ
Bacillus cereus [24] = test: Antibacterial activity against Bacillus cereus NCIM 2155 at 1000 ug/disk after 24 hr by disk diffusion method; type: functional; settings: NCIM 2155, 24 h, read-out: DIZ
Aspergillus niger [25] = test: Antifungal activity against Aspergillus niger NCIM 1196 at 1000 ug/disk after 72 hr by disk diffusion method; type: functional
Penicillium chrysogenum [26] = test: Antifungal activity against Penicillium chrysogenum NCIM 707 at 1000 ug/disk after 72 hr by disk diffusion method; type: functional
Klebsiella aerogenes [27] = test: Antibacterial activity against Enterobacter aerogenes NCIM 2239 after 24 hr by broth dilution assay; type: functional; settings: NCIM 2239, 24 h
Aspergillus niger [28] = test: Antifungal activity against Aspergillus niger NCIM 1196 at 500 ug/disk after 72 hr by disk diffusion method; type: functional
Pseudomonas aeruginosa [29] = test: Antibacterial activity against Pseudomonas aeruginosa NCIM 2200 after 24 hr by broth dilution assay; type: functional; settings: NCIM 2200, 24 h
Pseudomonas aeruginosa [30] = test: Antibacterial activity against Pseudomonas aeruginosa NCIM 2200 at 500 ug/disk after 24 hr by disk diffusion method; type: functional
Pseudomonas aeruginosa [31] = test: Antibacterial activity against Pseudomonas aeruginosa NCIM 2200 at 1000 ug/disk after 24 hr by disk diffusion method; type: functional; settings: NCIM 2200, 24 h, read-out: DIZ
Rhodotorula mucilaginosa [32] = test: Antifungal activity against Rhodotorula mucilaginosa NCIM 3174 at 500 ug/disk after 72 hr by disk diffusion method; type: functional
Lipomyces lipofer [33] = test: Antifungal activity against Lipomyces lipofer NCIM 3252 after 72 hr by broth dilution assay; type: functional; settings: NCIM 3252, 72 h

In the case of `O=c1[nH]c(=S)[nH]c2nc3ccc(Br)cc3cc12`, the “diameter of the inhibition zone (DIZ)” value (Aspergillus flavus [1]) is reported as “inactive”, the “diameter of the inhibition zone (DIZ)” value (Candida albicans [2]) is reported as “inactive” and the zone of inhibition at 1000 µg/disc (Candida albicans [3]) is reported as 12 mm. The MIC (Candida albicans [4]) was 125 µg/mL (≈ 406 µM), the “diameter of the inhibition zone (DIZ)” value (Klebsiella aerogenes [5]) was “inactive” and the zone of inhibition at 500 µg/disc (Bacillus subtilis [6]) was 12 mm. The zone of inhibition at 1000 µg/disc (Klebsiella aerogenes [7]) was 8 mm, the zone of inhibition at 500 µg/disc (Bacillus cereus [8]) was 10 mm and the zone of inhibition at 1000 µg/disc (Rhodotorula mucilaginosa [9]) was 12 mm. For the same molecule, the “diameter of the inhibition zone (DIZ)” value (Streptomyces albus [10]) was “inactive”, the zone of inhibition at 500 µg/disc (Lipomyces lipofer [11]; NCIM 3252, 72 h, read-out: DIZ) was 8 mm and the zone of inhibition at 1000 µg/disc (Aspergillus flavus [12]; NCIM 535, 72 h, read-out: DIZ) was 9 mm. The MIC (Escherichia coli [13]) was 125 µg/mL (≈ 406 µM), the “diameter of the inhibition zone (DIZ)” value (Escherichia coli [14]) was “inactive” and the MIC (Streptomyces albus [15]) was 62.5 µg/mL (≈ 203 µM). The zone of inhibition at 1000 µg/disc (Lipomyces lipofer [16]; NCIM 3252, 72 h, read-out: DIZ) was 12 mm, the zone of inhibition at 500 µg/disc (Penicillium chrysogenum [17]; NCIM 707, 72 h, read-out: DIZ) was 8 mm and the MIC (Bacillus cereus [18]) was 15.6 µg/mL (≈ 50.6 µM). It also gave a zone of inhibition at 1000 µg/disc (Escherichia coli [19]) of 10 mm, a zone of inhibition at 1000 µg/disc (Bacillus subtilis [20]) of 14 mm and an MIC (Rhodotorula mucilaginosa [21]) of 125 µg/mL (≈ 406 µM). It also gave an MIC (Bacillus subtilis [22]) of 7.8 µg/mL (≈ 25.3 µM), a zone of inhibition at 1000 µg/disc (Streptomyces albus [23]) of 12 mm and a zone of inhibition at 1000 µg/disc (Bacillus cereus [24]) of 15 mm. It also gave a zone of inhibition at 1000 µg/disc (Aspergillus niger [25]; NCIM 1196, 72 h, read-out: DIZ) of 10 mm, a zone of inhibition at 1000 µg/disc (Penicillium chrysogenum [26]; NCIM 707, 72 h, read-out: DIZ) of 12 mm and an MIC (Klebsiella aerogenes [27]) of 125 µg/mL (≈ 406 µM). The “diameter of the inhibition zone (DIZ)” value (Aspergillus niger [28]) was “inactive”, the MIC (Pseudomonas aeruginosa [29]) was 125 µg/mL (≈ 406 µM) and the “diameter of the inhibition zone (DIZ)” value (Pseudomonas aeruginosa [30]) was “inactive”. For the same molecule, the zone of inhibition at 1000 µg/disc (Pseudomonas aeruginosa [31]) was 12 mm, the zone of inhibition at 500 µg/disc (Rhodotorula mucilaginosa [32]; NCIM 3174, 72 h, read-out: DIZ) was 7 mm and the MIC (Lipomyces lipofer [33]) was 62.5 µg/mL (≈ 203 µM).
With `O=c1[nH]c(=O)c2cc3cc(Cl)ccc3nc2[nH]1` the “diameter of the inhibition zone (DIZ)” value (Aspergillus flavus [1]) was “inactive”, the “diameter of the inhibition zone (DIZ)” value (Candida albicans [2]) was “inactive” and the zone of inhibition at 1000 µg/disc (Candida albicans [3]) was 10 mm. The “diameter of the inhibition zone (DIZ)” value (Klebsiella aerogenes [5]) was “inactive”, the zone of inhibition at 500 µg/disc (Bacillus subtilis [6]) was 8 mm and the zone of inhibition at 1000 µg/disc (Klebsiella aerogenes [7]) was 8 mm. The zone of inhibition at 500 µg/disc (Bacillus cereus [8]) was 8 mm, the zone of inhibition at 1000 µg/disc (Rhodotorula mucilaginosa [9]) was 9 mm and the “diameter of the inhibition zone (DIZ)” value (Streptomyces albus [10]) was “inactive”. The “diameter of the inhibition zone (DIZ)” value (Lipomyces lipofer [11]) was “inactive”, the “diameter of the inhibition zone (DIZ)” value (Aspergillus flavus [12]) was “inactive” and the MIC (Escherichia coli [13]) was 7.8 µg/mL (≈ 31.5 µM). For the same molecule, the zone of inhibition at 500 µg/disc (Escherichia coli [14]; NCIM 2065, 24 h, read-out: DIZ) was 9 mm, the MIC (Streptomyces albus [15]) was 62.5 µg/mL (≈ 252 µM) and the “diameter of the inhibition zone (DIZ)” value (Lipomyces lipofer [16]) was “inactive”. For the same molecule, the “diameter of the inhibition zone (DIZ)” value (Penicillium chrysogenum [17]) was “inactive”, the MIC (Bacillus cereus [18]) was 31.2 µg/mL (≈ 126 µM) and the zone of inhibition at 1000 µg/disc (Escherichia coli [19]) was 12 mm. For the same molecule, the zone of inhibition at 1000 µg/disc (Bacillus subtilis [20]) was 12 mm, the MIC (Bacillus subtilis [22]) was 31.2 µg/mL (≈ 126 µM) and the zone of inhibition at 1000 µg/disc (Streptomyces albus [23]) was 10 mm. For the same molecule, the zone of inhibition at 1000 µg/disc (Bacillus cereus [24]) was 10 mm, the “diameter of the inhibition zone (DIZ)” value (Aspergillus niger [25]) was “inactive” and the “diameter of the inhibition zone (DIZ)” value (Penicillium chrysogenum [26]) was “inactive”. For the same molecule, the MIC (Klebsiella aerogenes [27]) was 62.5 µg/mL (≈ 252 µM), the “diameter of the inhibition zone (DIZ)” value (Aspergillus niger [28]) was “inactive” and the MIC (Pseudomonas aeruginosa [29]) was 31.2 µg/mL (≈ 126 µM). For the same molecule, the “diameter of the inhibition zone (DIZ)” value (Pseudomonas aeruginosa [30]) was “inactive”, the zone of inhibition at 1000 µg/disc (Pseudomonas aeruginosa [31]) was 12 mm and the “diameter of the inhibition zone (DIZ)” value (Rhodotorula mucilaginosa [32]) was “inactive”.
